Experimental data as given in patent US11840686B2, “Modulation of prekallikrein (PKK) expression” (Ionis Pharmaceuticals, Inc., priority 2013, dated 2023).
Strand notation (5' to 3'): a small letter for the sugar, then the base; units joined by * are phosphorothioate-linked, units joined directly phosphodiester-linked; [ ] holds rarer units or linkages, { } end groups; capitals alone tell only the bases. e = 2'-O-(2-methoxyethyl) (MOE); [5mC] = 5-methylcytosine; d = 2'-deoxy (DNA)

These substances were tested on human PKK mRNA (assay: Antisense inhibition of human PKK mRNA in HepaRG cells, 3,000 nM (Example 1)). Settings: Table 1; PKK mRNA, HepaRG cells, 3,000 nM, electroporation, ~24 h, relative to untreated control cells.
Type: cell-based
Method in brief: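 HepaRG cells, 20,000 per well, were electroporated with 3,000 nM 5-10-5 MOE gapmer (phosphorothioate, 5-methylcytosine). After about 24 h, PKK mRNA was measured by qRT-PCR with primer probe set RTS3454 and normalised to RIBOGREEN total RNA. Values are percent inhibition versus untreated cells.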

Substance | % inhibition [%]
530966 (antisense eA*eA*eT*eT*eT*d[5mC]*dT*dG*dA*dA*dA*dG*dG*dG*d[5mC]*eA*e[5mC]*eA*eG*eG) [compound 530966] | 58
530930 (antisense eA*eA*eA*eT*eG*dA*dA*d[5mC]*dG*dG*dT*d[5mC]*dT*dT*d[5mC]*eA*eA*eG*e[5mC]*eT) [compound 530930] | 17
530974 (antisense eT*eT*e[5mC]*eT*eT*dG*dA*dG*dG*dA*dG*dT*dA*dG*dA*eG*eG*eA*eA*e[5mC]) [compound 530974] | 18
530932 (antisense eT*eG*eT*e[5mC]*eA*d[5mC]*dT*dT*dA*dA*dA*dA*dA*dT*dG*eA*eA*e[5mC]*eG*eG) [compound 530932] | 52
530937 (antisense eT*eA*eA*eG*eT*dT*dG*d[5mC]*dT*dT*dG*d[5mC]*dT*dT*dG*eA*eA*eT*eA*eA) [compound 530937] | 0
530990 (eA*eT*eT*e[5mC]*eT*dT*d[5mC]*dT*d[5mC]*d[5mC]*dT*d[5mC]*d[5mC]*dA*dA*eA*eG*eT*e[5mC]*eA; antisense) [compound 530990] | 32
530939 (antisense eA*eA*e[5mC]*eA*eA*dG*dG*dA*dA*dA*dT*dG*dA*dA*dA*eT*eA*eA*eG*eT) [compound 530939] | 0
531001 (eA*eG*eA*eT*eA*dA*dT*d[5mC]*dT*dT*dA*dA*dG*dA*dA*eA*e[5mC]*eA*e[5mC]*eT; antisense) [compound 531001] | 44
530955 (antisense e[5mC]*eA*eA*eA*e[5mC]*d[5mC]*dT*dT*dT*dT*d[5mC]*dT*d[5mC]*d[5mC]*dA*eT*eG*eT*e[5mC]*eA) [compound 530955] | 55

Same assay, conditions: Table 2; PKK mRNA, HepaRG cells, 3,000 nM, electroporation, ~24 h, relative to untreated control cells

Substance | % inhibition [%]
531037 (antisense eA*eA*e[5mC]*eA*eG*dT*dT*dG*dG*dT*dA*dT*dA*dA*dA*eT*eT*eG*eT*eG) [compound 531037] | 35
531058 (antisense e[5mC]*e[5mC]*e[5mC]*eT*eT*dA*d[5mC]*dA*dA*dG*d[5mC]*dA*dT*d[5mC]*dT*eT*eT*eT*e[5mC]*e[5mC]) [compound 531058] | 60
531017 (eA*e[5mC]*eT*eG*eG*dT*dG*dT*d[5mC]*d[5mC]*dT*dA*dT*dG*dA*eG*eT*eG*eA*e[5mC]; antisense) [compound 531017] | 31
531061 (antisense eT*eG*e[5mC]*eT*e[5mC]*d[5mC]*d[5mC]*dT*dG*d[5mC]*dG*dG*dG*d[5mC]*dA*e[5mC]*eA*eG*e[5mC]*e[5mC]) [compound 531061] | 52
531080 (e[5mC]*eA*eT*eT*eG*dT*d[5mC]*d[5mC]*dT*d[5mC]*dA*dG*d[5mC]*dA*dG*e[5mC]*eT*e[5mC]*eT*eG; antisense) [compound 531080] | 55
531029 (antisense eA*eG*eT*eG*eT*dA*dA*dT*dT*d[5mC]*dA*dA*dA*dG*dG*eA*eG*e[5mC]*e[5mC]*eT) [compound 531029] | 59
531023 (e[5mC]*eT*eT*eT*eT*dG*dT*dA*dA*dT*dG*dT*d[5mC]*dT*dG*eA*e[5mC]*eA*eG*eA; antisense) [compound 531023] | 71
531044 (antisense eG*eG*e[5mC]*eA*eT*dT*d[5mC]*dT*dT*d[5mC]*dA*dT*dT*dT*dG*eT*eT*eA*e[5mC]*e[5mC]) [compound 531044] | 68
531041 (antisense eA*eA*eA*eG*eG*dA*dA*dT*dA*dT*dT*dT*dA*d[5mC]*d[5mC]*eT*eT*eT*eT*eG) [compound 531041] | 68
531082 (eA*eT*eA*eT*eT*dG*dG*dT*dT*dT*dT*dT*dG*dG*dA*eA*eT*eT*e[5mC]*eT; antisense) [compound 531082] | 31
531027 (antisense eA*eA*eA*eG*eG*dA*dG*d[5mC]*d[5mC]*dT*dG*dG*dA*dG*dT*eT*eT*eT*eA*eT) [compound 531027] | 0
531049 (antisense eT*eT*eA*eT*eT*dT*dT*dA*dT*dA*dA*dT*d[5mC]*dT*dT*eG*eA*eT*eA*eT) [compound 531049] | 2
531010 (eA*eA*eG*eA*eG*dT*dT*dT*dG*dT*dT*d[5mC]*d[5mC]*dT*d[5mC]*e[5mC]*eA*eA*e[5mC]*eA; antisense) [compound 531010] | 52

Same assay, conditions: Table 3; HepaRG cells, electroporation with 3,000 nM antisense oligonucleotide, approx. 24 hours; PKK mRNA by RT-PCR (RTS3454), relative to untreated control cells

Substance | % inhibition [%]
531152 (antisense eG*eT*eT*eA*eT*dG*dG*dA*dT*dA*dT*dA*dG*dA*d[5mC]*eT*eT*eT*eA*eA) [compound 531152] | 0
531132 (antisense eA*eG*eT*eG*eA*dG*dG*dT*dT*dA*d[5mC]*dT*d[5mC]*dA*d[5mC]*e[5mC]*eA*eG*eA*eG) [compound 531132] | 0
531136 (antisense eT*eA*eA*e[5mC]*eA*dT*dT*dT*d[5mC]*dT*dA*dT*dG*dG*dG*e[5mC]*e[5mC]*eT*eG*eA) [compound 531136] | 6
531120 (antisense eA*eA*eA*eT*eA*dA*dA*dA*dG*d[5mC]*dA*d[5mC]*dT*d[5mC]*dA*eG*eA*e[5mC]*eT*eG) [compound 531120] | 0
531139 (antisense eT*e[5mC]*eA*e[5mC]*eT*dA*dA*dA*dA*d[5mC]*dA*dA*dA*dA*dA*eT*eA*e[5mC]*eT*eT) [compound 531139] | 0
531099 (eT*eG*eG*eA*eT*dG*dG*dG*dT*dA*dG*dA*dG*dG*d[5mC]*e[5mC]*eT*eT*eT*e[5mC]; antisense) [compound 531099] | 64
531112 (antisense eA*eT*eG*eT*eA*dT*dG*dA*dT*dT*d[5mC]*dT*dA*dA*dG*eA*eA*e[5mC]*eT*eT) [compound 531112] | 14
531126 (antisense eT*eT*eT*eT*eG*dA*dA*dT*d[5mC]*dT*dT*d[5mC]*dA*dT*dT*e[5mC]*eA*eA*eA*eG) [compound 531126] | 0
531087 (e[5mC]*e[5mC]*eA*eG*eG*dT*dG*dT*dG*dG*dA*d[5mC]*dA*dG*d[5mC]*eA*eG*e[5mC]*eT*eG; antisense) [compound 531087] | 52
531108 (antisense eT*eG*eA*eA*e[5mC]*d[5mC]*d[5mC]*dA*dA*dA*dA*d[5mC]*dT*d[5mC]*dT*eG*eG*e[5mC]*eA*e[5mC]) [compound 531108] | 50
531127 (antisense e[5mC]*eA*eG*eA*eG*d[5mC]*d[5mC]*dT*dT*dG*dA*dT*d[5mC]*dA*dG*eA*eA*eT*eA*eA) [compound 531127] | 12
531148 (antisense eT*eA*e[5mC]*e[5mC]*e[5mC]*dA*dA*dA*dT*dT*dA*dT*dA*d[5mC]*d[5mC]*eT*eG*eG*eA*eA) [compound 531148] | 8
531135 (antisense eA*eA*eT*eG*eT*dT*dG*dT*dG*dA*dA*dT*dA*d[5mC]*d[5mC]*eA*eT*e[5mC]*e[5mC]*e[5mC]) [compound 531135] | 16
531159 (antisense eA*eT*eT*eT*eG*dT*dT*dA*dA*dA*dA*dG*dT*dT*dG*e[5mC]*eT*eT*eA*eT) [compound 531159] | 0
531086 (e[5mC]*e[5mC]*eT*eG*e[5mC]*d[5mC]*dT*d[5mC]*d[5mC]*dT*dG*dG*d[5mC]*dA*dG*e[5mC]*e[5mC]*eT*eT*e[5mC]; antisense) [compound 531086] | 48

Same assay, conditions: Table 4; HepaRG cells, electroporation with 3,000 nM antisense oligonucleotide, approx. 24 hours; PKK mRNA by RT-PCR (RTS3454), relative to untreated control cells

Substance | % inhibition [%]
531210 (eA*eG*eA*e[5mC]*eA*dT*dT*dG*dT*d[5mC]*dA*dA*dA*dT*dG*eT*e[5mC]*e[5mC]*e[5mC]*e[5mC]; antisense) [compound 531210] | 60
531177 (antisense eT*eT*e[5mC]*eT*eT*dG*dT*dA*dA*dA*dT*dG*dT*d[5mC]*dT*eG*eA*eA*eT*eT) [compound 531177] | 61
531179 (antisense eG*eA*eT*eT*eG*dG*dA*d[5mC]*d[5mC]*d[5mC]*dA*dG*dA*d[5mC]*dA*e[5mC]*eT*eA*eT*eA) [compound 531179] | 57
531162 (antisense eA*eA*eT*eT*eT*d[5mC]*d[5mC]*d[5mC]*dA*dG*dA*dT*dG*dT*dA*eT*eT*eA*eG*eT) [compound 531162] | 43
531165 (antisense eG*eT*eA*eA*eT*dA*dA*dA*dA*dG*dG*dA*dA*dT*dG*eA*eT*eA*eA*eA) [compound 531165] | 0
531229 (e[5mC]*eT*eT*e[5mC]*eA*dA*dA*dG*d[5mC]*d[5mC]*dA*dG*d[5mC]*dA*dG*eT*eG*eT*eA*eA; antisense) [compound 531229] | 69
531164 (antisense eT*eT*eA*eA*eA*dT*dA*dT*dA*dA*dA*dG*dA*dG*dA*eT*e[5mC]*e[5mC]*eT*e[5mC]) [compound 531164] | 38
531206 (eG*eA*eA*eA*eT*dG*dT*d[5mC]*dT*dA*dG*d[5mC]*dA*dT*dT*eT*eT*e[5mC]*eT*eA; antisense) [compound 531206] | 28
531194 (e[5mC]*eT*e[5mC]*eA*e[5mC]*dA*dA*dT*dT*d[5mC]*dT*dG*dT*dA*dA*eG*eG*eG*eA*eA; antisense) [compound 531194] | 64
531223 (eT*eG*eT*eA*e[5mC]*dT*d[5mC]*dA*d[5mC]*d[5mC]*dG*dG*dT*dA*d[5mC]*eT*e[5mC]*eT*eG*e[5mC]; antisense) [compound 531223] | 58
531217 (eG*eT*eG*eG*eA*dA*dT*dA*dA*dA*d[5mC]*d[5mC]*dA*dT*dA*eA*eT*e[5mC]*eT*eA; antisense) [compound 531217] | 47
